In US5591773A, “Inhibition of cataract formation, diseases resulting from oxidative stress, and HIV replication by caffeic acid esters” (priority 1994, dated 1997):

What was measured:
[1] = test system: TPA-induced PMN infiltration in SENCAR mouse ears (MPO); assay: TPA-induced PMN infiltration (MPO) in mouse ears; format: in vivo, SENCAR mice; settings: for MPO in mouse ears, TPA only: TPA 0.4 nmol/ear, 5 h
Protocol: FIG. 3. Effect of CAPE on TPA-induced PMN infiltration and edema in SENCAR mouse ears. These were paired experiments, in which both ears of each mouse (8-9/group) were treated with 0.4 nmol TPA±CAPE in 20 μl acetone, and the mice were sacrificed 5 h later. (A) One ear was frozen for subsequent determination of MPO (a measure of PMN infiltration). (B) A punch (6 mm diameter) was taken from the second ear and weighed to measure edematous response (weight of sample minus weight of control). (A) Ears of each group (7-9/group) were separately minced and homogenized under different conditions as described in the "Experimental Details" Section, infra. MPO was determined in duplicate. MPO was undetectable in acetone controls and was 4.13±0.0 units/mg protein and 1.18±0.1 units/mg protein in the 2 homogenates of TPA-only-treated mice. CAPE-mediated inhibition was calculated versus the appropriate TPA-only sample, which was homogenized the same way. (B) Weights of ear punches (8-9/group, each determined separately). Acetone controls, 7.2±0.1 mg; TPA in acetone, 16.7±0.7 mg.
B) Edema Determination. Both ears of SENCAR mice (7-9 mice/group) were treated with 0.4 nmol TPA in 20 μl acetone alone or together with added 0.1 nmol, 0.3 nmol, or 1 μmol CAPE. […] The mice were sacrificed by cervical dislocation 5 h after treatment, and edema was measured on one mouse ear, while the second ear was immediately frozen and later analyzed for PMN infiltration by quantifying myeloperoxidase (MPO) (see below). Ear edema (increased weight of ear punches) was determined as previously described (24). Edema was expressed as mg/6 mm (diameter) ear punch±SE.
The assay for MPO was carried out according to the procedure of Metcalf et al. (53) with some modifications (20), and the results are expressed as units/cm^2, where a unit is defined as that degrading 1 μmol H2 O2 /min at 25° C. The presence of MPO in the mouse ears was measured in the homogenates. […] Each homogenate was analyzed in duplicate and the results are expressed as mean MPO (units/mg protein) ±SE for each of the homogenates.

[2] = test system: bovine lens (H2O2); assay: H2O2 formation in bovine lens; format: cell-based; settings: for H2O2 / increase in H2O2 concentration over control lenses: 24 h; for H2O2: mean of 3 ± SE
Protocol: B) Bovine Lens Bovine lenses were obtained from a New Jersey slaughterhouse 3 h after the animals were sacrificed. Lenses were immediately immersed in artificial aqueous humor (AAH; 130 mMNaCl, 5 mMKCl, 1 mM CaCl2, 0.5 mM MgCl2, 10 mM NaHCO3, 10 mM 4-(2-hydroxyethyl)-1-piperazineethanesulfonic acid (pH 7.3), and 2.5 mM D-glucose). Each of the bovine lenses in AAH (about 15 ml/lens) supplemented with 10 mM azide (a catalase inhibitor) was incubated with various amounts (0-1 μM) TPA at 37° C. for 24 h in the presence or absence of CAPE (1 μM), as described for use of other chemopreventive agents (31). For comparison, the lenses were also incubated with glucose (2.5 mM)/glucose oxidase (25 μM), a H2 O2 -generating system.
After incubation, lenses were homogenized in 15 ml of azide-supplemented AAH in a Waring Blender, and H2 O2 content was determined spectrofluorometrically, as described previously (55). Briefly, the homogenates were incubated with 2',7'-dichlorofluorescin diacetate, which is deacetylated by the esterase present in the homogenate. In the presence of HRPO, the nonfluorescent substrate was oxidized by H2 O2 generated in the lens to a highly fluorescent product, which was measured at excitation 475 nm and emission 525 nm (30, 31, 55). The amount of H2 O2 generated was determined from a standard curve, which was constructed by addition of increasing concentrations of H2 O2 to a homogenate derived from a control lens incubated only in AAH.

SMILES | suppression of TPA-induced PMN infiltration, ear ([1]; CAPE 0.1 nmol/ear, TPA 0.4 nmol) [%] | H2O2 ([2]; 1 μM CAPE 30 min then 0.1 μM TPA) [µM] | H2O2, % of change from control ([2]; 1 μM CAPE/0.1 μM TPA) [%] | inhibition at 1 µM ([2]; Bos taurus, 1 μM CAPE 30 min, then 0.1 μM TPA 24 h, read-out: decline in TPA-induced H2O2 production) [%] | MPO in mouse ears, TPA only ([1]; first of 2 homogenates) [units/mg protein] | MPO in mouse ears, TPA only ([1]; second of 2 homogenates) [units/mg protein] | H2O2, % of change from control ([2]; 0.01 μM TPA) [%] | H2O2 ([2]; 0.01 μM TPA) [µM] | H2O2, % of change from control ([2]; 0.05 μM TPA) [%] | increase in H2O2 concentration over control lenses ([2]; 0.05 μM TPA) | H2O2 ([2]; 0.05 μM TPA) [µM] | H2O2, % of change from control ([2]; 0.10 μM TPA) [%] | increase in H2O2 concentration over control lenses ([2]; 0.1 μM TPA) [fold] | H2O2 ([2]; 0.10 μM TPA) [µM] | H2O2, % of change from control ([2]; 1.0 μM TPA) [%] | increase in H2O2 concentration over control lenses ([2]; 1.0 μM TPA) [fold] | H2O2 ([2]; 1.0 μM TPA) [µM]
O=C(/C=C/c1ccc(O)c(O)c1)OCCc1ccccc1 [CAPE, Caffeic acid phenethyl ester] | ~50 | 13.1 ± 1.3 | 110 | ~95 |  |  |  |  |  |  |  |  |  |  |  |  | 
CCCCCCCCCCCCCC(=O)O[C@@H]1[C@@H](C)[C@@]2(O)[C@@H](C=C(CO)C[C@]3(O)C(=O)C(C)=C[C@@H]23)[C@@H]2C(C)(C)[C@]12OC(C)=O [TPA, 12-O-tetradecanoylphorbol-13-acetate] |  |  |  |  | 4.13±0.0 | 1.18±0.1 | 95 | 11.3 ± 0.2 | 200 | about 2 fold | 23.3 ± 1.3 | 360 | ~3.5 | 42.7 ± 1.6 | 705 | ~7 | 83.8 ± 5.6
